Assay results reported in US9199943B2, “2-(poly-substituted aryl)-6-amino-5-halo-4-pyrimidinecarboxylic acids and their use as herbicides” (Dow AgroSciences, LLC., priority 2006, dated 2015).

Columns and labels:
Assay type in all cases: in vivo
[1] = tested on: ABUTH = velvetleaf (Abutilon theophrasti); assay: General postemergence herbicidal activity, velvetleaf; conditions: Abutilon theophrasti, post-emergence, 336 h; post-emergent, 140 g ai/ha, visual score after 14 days (0 no injury, 100 complete kill)
Protocol: Seeds or nutlets of the desired test plant species were planted in Sun Gro MetroMix® 306 planting mixture, which typically has a pH of 6.0 to 6.8 and an organic matter content of about 30 percent, in plastic pots with a surface area of 64 square centimeters. When required to ensure good germination and healthy plants, a fungicide treatment and/or other chemical or physical treatment was applied. The plants were grown for 7-21 days in a greenhouse with an approximate 15 hour photoperiod which was maintained at about 23-29° C. during the day and 22-28° C. during the night. Nutrients and water were added on a regular basis and supplemental lighting was provided with overhead metal halide 1000-Watt lamps as necessary. The plants were employed for testing when they reached the first or second true leaf stage.
A weighed amount, determined by the highest rate to be tested, of each test compound was placed in a 25 mL glass vial and was dissolved in 4 mL of a 97:3 v/v (volume/volume) mixture of acetone and dimethyl sulfoxide (DMSO) to obtain concentrated stock solutions. […] The concentrated stock solutions obtained were diluted with 20 mL of an aqueous mixture containing acetone, water, isopropyl alcohol, DMSO, Atplus 411F crop oil concentrate, and Triton X-155 surfactant in a 48.5:39:10:1.5:1.0:0.02 v/v ratio to obtain spray solutions containing the highest application rates. Additional application rates were obtained by serial dilution of 12 mL of the high rate solution into a solution containing 2 mL of 97:3 v/v (volume/volume) mixture of acetone and dimethyl sulfoxide (DMSO) and 10 mL of an aqueous mixture containing acetone, water, isopropyl alcohol, DMSO, Atplus 411F crop oil concentrate, and Triton X-155 surfactant in a 48.5:39:10:1.5:1.0:0.02 v/v ratio to obtain ½×, ¼×, ⅛× and 1/16× rates of the high rate. Compound requirements are based upon a 12 mL application volume at a rate of 187 L/ha. Formulated compounds were applied to the plant material with an overhead Mandel track sprayer equipped with a 8002E nozzles calibrated to deliver 187 L/ha over an application area of 0.503 square meters at a spray height of 18 inches (43 cm) above the average plant canopy height. Control plants were sprayed in the same manner with the solvent blank.
(§1) The treated plants and control plants were placed in a greenhouse as described above and watered by sub-irrigation to prevent wash-off of the test compounds. After 14 days, the condition of the test plants as compared with that of the untreated plants was determined visually and scored on a scale of 0 to 100 percent where 0 corresponds to no injury and 100 corresponds to complete kill.
By applying the well-accepted probit analysis as described by J. Berkson in Journal of the […], 48, 565 (1953) and by D. Finney in “Probit Analysis” Cambridge University Press (1952), the above data can be used to calculate GR50 and GR80 values, which are defined as growth reduction factors that correspond to the effective dose of herbicide required to kill or control 50 percent or 80 percent, respectively, of a target plant.

[2] = tested on: GALAP = Galium aparine; assay: Postemergence herbicidal activity in cereal crops, Galium aparine; conditions: post-emergence, 480 h, post-emergent, after 20-22 days; for pest or weed control at 70 g/ha: 70 g ai/ha; for pest or weed control at 35 g/ha: 35 g ai/ha; for pest or weed control at 17.5 g/ha: 17.5 g ai/ha
Protocol: (§2) Seeds of the desired test plant species were planted in Sun Gro MetroMix® 306 planting mixture, which typically has a pH of 6.0 to 6.8 and an organic matter content of about 30 percent, in plastic pots with a surface area of 103.2 square centimeters. When required to ensure good germination and healthy plants, a fungicide treatment and/or other chemical or physical treatment was applied. The plants were grown for 7-36 days in a greenhouse with an approximate 14 hour photoperiod which was maintained at about 18° C. during the day and 17° C. during the night. Nutrients and water were added on a regular basis and supplemental lighting was provided with overhead metal halide 1000-Watt lamps as necessary. The plants were employed for testing when they reached the second or third true leaf stage.
(§3) A weighed amount, determined by the highest rate to be tested, of each test compound was placed in a 25 mL glass vial and was dissolved in 8 mL of a 97:3 v/v mixture of acetone and DMSO to obtain concentrated stock solutions. […] The concentrated stock solutions obtained were diluted with 16 mL of an aqueous mixture containing acetone, water, isopropyl alcohol, DMSO, Agri-dex crop oil concentrate, and Triton X-77 surfactant in a 64.7:26.0:6.7:2.0:0.7:0.01 v/v ratio to obtain spray solutions containing the highest application rates. Additional application rates were obtained by serial dilution of 12 mL of the high rate solution into a solution containing 4 mL of 97:3 v/v mixture of acetone and DMSO and 8 mL of an aqueous mixture containing acetone, water, isopropyl alcohol, DMSO, Agri-dex crop oil concentrate, and Triton X-77 surfactant in a 48.5:39.0:10.0:1.5:1.0:0.02 v/v ratio to obtain ½×, ¼×, ⅛× and 1/16× rates of the high rate. Compound requirements are based upon a 12 mL application volume at a rate of 187 L/ha. Formulated compounds were applied to the plant material with an overhead Mandel track sprayer equipped with a 8002E nozzles calibrated to deliver 187 L/ha over an application area of 0.503 square meters at a spray height of 18 inches (43 cm) above average plant canopy height. Control plants were sprayed in the same manner with the blank.
as §1, with “20-22” for “14”

[3] = tested on: VERPE = Veronica persica; assay: Postemergence herbicidal activity in cereal crops, Veronica persica; conditions: post-emergence, 480 h, post-emergent, after 20-22 days; for pest or weed control at 70 g/ha: 70 g ai/ha; for pest or weed control at 35 g/ha: 35 g ai/ha; for pest or weed control at 17.5 g/ha: 17.5 g ai/ha
Protocol: as §2, §3
as §1, with “20-22” for “14”

Row | SMILES | pest or weed control at 140 g/ha [1] [%] | pest or weed control at 70 g/ha [2] [%] | pest or weed control at 70 g/ha [3] [%] | pest or weed control at 35 g/ha [2] [%] | pest or weed control at 35 g/ha [3] [%] | pest or weed control at 17.5 g/ha [2] [%] | pest or weed control at 17.5 g/ha [3] [%]
1 | COC(=O)c1nc(-c2ccc(Cl)c(OCC(F)F)c2F)nc(N)c1Cl [Compound 10, 6-Amino-5-chloro-2-[4-chloro-3-(2,2-difluoroethoxy)-2-fluorophenyl]-pyrimidine-4-carboxylic acid methyl ester] | 75 | 65 | 20 | – | – | – | –
2 | COC(=O)c1nc(-c2c(F)cc(Cl)c(OC)c2F)nc(N)c1Cl [Compound 2, 6-amino-5-chloro-2-(4-chloro-2,6-difluoro-3-methoxy-phenyl)pyrimidine-4-carboxylic acid methyl ester] | 90 | – | – | 95 | 50 | – | –
3 | COC(=O)c1nc(-c2ccc(Cl)c(OC)c2Cl)nc(N)c1Cl [Compound 6, 6-Amino-5-chloro-2-(2,4-dichloro-3-methoxyphenyl)pyrimidine-4-carboxylic acid methyl ester] | 95 | 85 | 99 | – | – | – | –
4 | CCOc1c(Cl)ccc(-c2nc(N)c(Cl)c(C(=O)OC)n2)c1F [Compound 1, 6-amino-5-chloro-2-(4-chloro-3-ethoxy-2-fluorophenyl)-pyrimidine-4-carboxylic acid methyl ester] | 100 | – | – | 99 | 20 | – | –
5 | COC(=O)c1nc(-c2ccc(Cl)c(C(F)F)c2F)nc(N)c1Cl [Compound 7, 6-Amino-5-chloro-2-(4-chloro-3-difluoromethyl-2-fluorophenyl)pyrimidine-4-carboxylic acid methyl ester] | 80 | – | – | – | – | 60 | 95
6 | COC(=O)c1nc(-c2ccc(Cl)c(OC)c2F)nc(N)c1Cl [Compound 3, 6-amino-5-chloro-2-(4-chloro-2-fluoro-3-methoxyphenyl)-pyrimidine-4-carboxylic acid methyl ester] | 100 | – | – | – | – | 95 | 99
7 | COC(=O)c1nc(-c2ccc(Cl)c(OC)c2F)nc(N)c1Br [Compound 13, 6-amino-5-bromo-2-(4-chloro-2-fluoro-3-methoxyphenyl)-pyrimidine-4-carboxylic acid methyl ester] | 100 | – | – | – | – | 90 | 95
8 | COC(=O)c1nc(-c2ccc(Cl)c(N(C)C)c2F)nc(N)c1Cl [Compound 8, 6-Amino-5-chloro-2-(4-chloro-3-dimethylamino-2-fluorophenyl)pyrimidine-4-carboxylic acid methyl ester] | 100 | – | – | 70 | 95 | – | –
9 | COC(=O)c1nc(-c2ccc3c(c2F)OCO3)nc(N)c1Cl [Compound 9, 6-Amino-5-chloro-2-(4-fluorobenzo[1,3]dioxol-5-yl)pyrimidine-4-carboxylic acid methyl ester] | 95 | 90 | 30 | – | – | – | –
